Reference: patent publication US20250295119A1, “SPHERICAL NAN[…] FROM TMGMV IMPROVE SOIL TRANSPORT OF SMALL, HYDROPHOBIC AGROCHEMICALS” (THE REGENTS OF THE UNIVERSITY OF CALIFORNIA, priority 2022, published 2025)

How the values were obtained:
C. elegans [1] = test: Pluronic F127 gel burrowing assay after treatment of C. elegans in solution; assay type: in vivo, Caenorhabditis elegans; conditions: 10 μM ivermectin (normalized), 90 minutes incubation in solution, no soil passage
Description: (§1) As a final test, Applicant delivered IVN-SNPs against C. elegans (FIG. 4). Nematodes were incubated with SNPs, IVN-SNPs, and free IVN for 90 minutes in solution. In parallel, the same (IVN-)SNPs were passed through a soil column and collected before treating the C. elegans in solution. For all samples, Applicant performed a modified gel burrowing assay (FIG. 4A) by transferring the nematodes and casting them in Pluronic F127 in a well-plate^23. The surface was coated with E. coli OP-50 lysate to attract the nematodes, and the number of C. elegans which penetrated to the surface were counted. Nematode mobility was quantified based on their total track coverage using edge detection (FIGS. 4B-4D, FIG. 13, FIG. 14). The mobility was then estimated using the following equation: […]
Using the optimized Pluronic concentration of 26% w/w previously reported, Pluronic F127 solutions were stored at 4° C. to dissolve and stay soluble (Lesanpezeshki, L. et al., Scientific Reports 2019). […] After 2 hours, an 11×11 area scan at 4× magnification (Keyence BZ-X800 Fluorescence Microscope) was taken for each well. The number of nematodes on the surface were counted manually and the area fraction of their tracks was determined by edge detection and binary image transformation in ImageJ.

C. elegans [2] = test: Pluronic F127 gel burrowing assay with samples first passed through a 10 cm soil column; assay type: in vivo, Caenorhabditis elegans; conditions: 10 μM ivermectin, collected fractions
Description: as §1
Magic Topsoil (Michigan Peat) was weighed and packed into a cylindrical column fitted with miracloth at the bottom. […] The band intensity of the fractions on SDS PAGE was determined using ImageJ. […]
Using the optimized Pluronic concentration of 26% w/w previously reported, Pluronic F127 solutions were stored at 4° C. to dissolve and stay soluble (Lesanpezeshki, L. et al., Scientific Reports 2019). […] After 2 hours, an 11×11 area scan at 4× magnification (Keyence BZ-X800 Fluorescence Microscope) was taken for each well. […]

Question: Which results are given for ivermectin?
Answer: reduction in surface velocity (C. elegans [1]): 4.5 fold; reduction in the number of nematodes on the surface (C. elegans [1]): 6 fold; reduction in surface velocity after passing through a soil column (C. elegans [2]): no reduction; reduction in the number of nematodes after passing through a soil column (C. elegans [2]): no reduction
